In general, GI50 refers to the concentration that inhibits growth by half.

Like-named read-outs stand apart in the source and are kept apart here.

In patent US12558428B2, “Heterobifunctional compounds and their use in treating disease” (Halda Therapeutics OpCo, Inc., priority 2024, dated 2026) one finds GI50 data, which are given here for 10 compounds.

Common to all, as to type: cell-based
Experiment [1] concerns T-Rex 293 cells having increased expression of estrogen receptor alpha protein. Description: Cellular growth inhibition assay, T-Rex 293 cells, (+) doxycycline. Conditions: T-REx-293, 72 h. The protocol:
(§1) Exemplary compounds were tested for the ability to inhibit the proliferation of the following types of cells: (i) a T-Rex 293 cell line having increased expression of estrogen receptor alpha protein from exposure to doxycycline and (ii) a T-Rex 293 cell line lacking increased expression of estrogen receptor alpha protein.
(§2) The following types of cells were prepared for this experiment: (i) a T-Rex 293 cell line having increased expression of estrogen receptor alpha protein from exposure to doxycycline and (ii) a T-Rex 293 cell line lacking increased expression of estrogen receptor alpha protein. The ability of the test compounds to inhibit proliferation of the foregoing cell types was evaluated according to the procedures set forth below.
(§3) The doxycycline-inducible estrogen receptor alpha protein expressing cell line was established using the following protocol: T-Rex 293 cells were purchased from Invitrogen (Cat #R71007) and transfected using Lipofectamine 2000 with the wild-type estrogen receptor alpha protein sequence cloned into the pcDNA4/TO vector. Transfected cells were selected using 400 μg/mL Zeocin (Invitrogen Cat #R25001). Following selection, single clones were raised and maintained in Dulbecco's Modified Eagle Medium (DMEM) supplemented with 10% w/w Tetracycline-free fetal bovine serum (FBS) and 250 μg/mL Zeocin. Clones were analyzed for expression of estrogen receptor alpha protein in the presence and absence of 3 ng/mL doxycycline (Sigma Cat #D9891), and a single doxycycline-inducible clone (hereinafter “SC”) was selected for use in downstream assays.
(§4) The SC cells were seeded on poly-D-lysine coated, black clear-bottom 384-well plates at 2500/well, in 25 μL Phenol Red Free Dulbecco's Modified Eagle Medium (DMEM) supplemented with 10% w/w charcoal-dextran treated fetal bovine serum (FBS) and 1% w/w pen-strep, with or without 3 ng/mL doxycycline. Pen-Strep is a commercially available mixture of penicillin G and streptomycin, which is used in mammalian cell culture media to prevent bacterial contamination. Phenol Red Free Dulbecco's Modified Eagle Medium (DMEM) supplemented with 10% w/w charcoal-dextran treated fetal bovine serum (FBS) and 1% w/w pen-strep, with or without 3 ng/mL doxycycline is herein referred to as Treatment Medium. Following seeding of cells in the plates, the plates were spun at 300×g for 30 seconds, then equilibrated to room temperature for 30 minutes, and then deposited in a humidified tissue culture incubator maintained at 37° C. with 5% CO2.
(§5) At 24 hours after seeding of the cells, dilutions of test compound were prepared in DMSO and dissolved in Treatment Medium, to achieve a final DMSO concentration of 0.5% w/w, thereby providing the Test Compound Solution. A 25 μL aliquot of the Test Compound Solution was added to cells in the well plates. An equal volume of a solution containing DMSO and Treatment Medium was used as a negative control. Following treatment of cells with Test Compound Solution or said equal volume of a solution containing DMSO and Treatment Medium, the plates were spun at 300×g for 30 seconds, and then left in an incubator for 72 hours.
(§6) At the end of the treatment duration, cell viability was quantified with CellTiter-Glo 2.0 reagent (Promega Cat #G9243). For this purpose, plates were equilibrated to room temperature for 30 minutes, and then 25 μL of CellTiter-Glo 2.0 reagent was added to cells in the plate wells. Plates were then agitated on a shaker for two minutes at 500 rpm and subsequently incubated at room temperature for 10 minutes. Following incubation, the plates were spun at 3000×g for 30 seconds, then sealed with an optical adhesive cover, and luminescence readings were measured with an EnVision Plate Reader (Perkin Elmer).
(§7) Data was normalized using zero luminescence for baseline. […]

Experiment [2] concerns T-Rex 293 cells lacking increased expression of estrogen receptor alpha protein. Description: Cellular growth inhibition assay, T-Rex 293 cells, (−) doxycycline. Conditions: T-REx-293, 72 h. The protocol: as §1, §2, §3, §4, §5, §6, §7
Experiment [3] deals with MCF7 cells (ATCC #HTB-22). Description: Cellular growth inhibition assay, MCF7 cells purchased from ATCC. The settings on record: Homo sapiens, MCF7, 144 h. The protocol:
Exemplary compounds were tested for the ability to inhibit the proliferation of MCF7 cells.
MCF7 cells (ATCC #HTB-22 or ECACC #86012803) were cultured in RPMI 1640 medium supplemented with 10% heat-inactivated fetal bovine serum, 1% pen-strep, and 0.2 U/ml insulin. Cells were seeded in 25 μL of RPMI 1640 medium supplemented with 10% heat-inactivated fetal bovine serum, 1% pen-strep, 0.2 U/ml insulin in poly-D-lysine treated, black clear-bottom 384-well plates at 225 cells/well for MCF7 cells purchased from ECACC or 1,500 cells/well for MCF7 cells purchased from ATCC. Following seeding, plates were spun at 300×g for 30 seconds and cultured at 37° C. with 5% CO2 in a humidified tissue culture incubator.
At 24 hours after seeding, compounds were titrated in 100% DMSO and diluted in RPMI 1640 medium supplemented with 10% heat-inactivate fetal bovine serum, 1% pen-strep, and 0.2 U/ml insulin. A 25 μL aliquot of the compound/media mixture was added to cells, bringing the total volume in each well to 50 μL. An equal volume of DMSO without compound was used as a negative control. After treatment, plates were spun at 300×g for 30 seconds, then cultured at 37° C. with 5% CO2 for six days in a humidified tissue culture incubator.
On Day 6 of treatment, cell viability was quantified with CellTiter-Glo 2.0 reagent (Promega). Plates were equilibrated to room temperature for 30 minutes, then 25 μL of CellTiter-Glo 2.0 reagent was added to cells, bringing the total volume in each well to 75 μL. After reagent was added, plates were mixed on a shaker for two minutes at 500 rpm and then incubated at room temperature for 10 minutes. Following incubation, plates were spun at 3,000×g for 30 seconds, sealed with an optical adhesive cover, and luminescence readings were measured with an EnVision Plate Reader.
Data was normalized to 0 luminescence for baseline. A four-parameter, non-linear regression curve fit was applied to dose-response data in GraphPad Prism data analysis software to determine the half maximal growth inhibitory concentration (GI50) for each compound.

[4] abbreviates: Table 7-A, T-Rex 293 cells with doxycycline (increased ERα expression), 72 hours, CellTiter-Glo, read-out: (+) Dox GI50.
[5] abbreviates: Table 7-A, T-Rex 293 cells without doxycycline (lacking increased ERα expression), 72 hours, CellTiter-Glo, read-out: (−) Dox GI50.
Where [6] appears, read: Table 8-A, MCF7 cells purchased from ATCC, six days, CellTiter-Glo, read-out: GI50.
Where [7] appears, read: T-Rex 293 cells with doxycycline-induced ERα expression, 72 hours, CellTiter-Glo 2.0, read-out: (+) Dox TRex ERa (GI50).
The mark [8] stands for this setting: T-Rex 293 cells without doxycycline, 72 hours, CellTiter-Glo 2.0, read-out: (−) Dox TRex ERa (GI50).
The mark [9] stands for this setting: read-out: (+) Dox TRex ERa (GI50).
Setting [10] is: read-out: (−) Dox TRex ERa (GI50).

With `COc1cc(N2CCN(CC3(O)CCN(c4ccc(C5=N[C@@H](C)c6nnc(C)n6-c6sc(C)c(C)c65)cc4)CC3)CC2)c(F)cc1[C@@H]1c2ccc(O)cc2CC[C@@H]1c1ccccc1` (single isomer, unassigned) [III-311], the values for the GI50 in experiment [1] (setting [4]), in experiment [2] (setting [5]) and in experiment [3] (setting [6]) were less than 50 nM, 500 to 2500 nM and less than 50 nM, respectively.

As for `COc1cc(N2CCN(CC3(O)CCN(c4ccc(C5=N[C@@H](C)c6nnc(C)n6-c6sc(C)c(C)c65)cc4)CC3)CC2)c(F)cc1[C@H]1c2ccc(O)cc2CC[C@H]1c1ccccc1` (single isomer, unassigned) [III-312], the GI50 in experiment [1] (setting [4]), in experiment [2] (setting [5]) and in experiment [3] (setting [6]) was 50 to 500 nM each time.

`COc1cc(N2CCN(CC3(O)CCN(c4ccc(C5=N[C@@H](C)c6nnc(C)n6-c6sc(C)c(C)c65)c(F)c4)CC3)CC2)ccc1[C@H]1c2ccc(O)cc2CC[C@H]1c1cccc(F)c1` (single isomer, unassigned) [III-343]: the GI50 was 50 to 500 nM in experiment [1] (setting [4]), 50 to 500 nM in experiment [2] (setting [5]) and less than 50 nM in experiment [3] (setting [6]).

For the compound `COc1cc(N2CCN(CC3(O)CCN(c4ccc(C5=N[C@@H](C)c6nnc(C)n6-c6sc(C)c(C)c65)c(F)c4)CC3)CC2)ccc1[C@@H]1c2ccc(O)cc2CC[C@@H]1c1cccc(F)c1` (single isomer, unassigned) [III-344], the values for the GI50 in experiment [1] (setting [4]), in experiment [2] (setting [5]) and in experiment [3] (setting [6]) were less than 50 nM, 500 to 2500 nM and less than 50 nM, respectively.

Consider `CCN(CCCCNC(=O)C[C@@H]1N=C(c2ccc(Cl)cc2)c2c(sc(C)c2C)-n2c(C)nnc21)CCOc1ccc(C(=O)c2c(-c3ccc(O)cc3)sc3cc(O)ccc23)cc1` [I-1, (S)-2-(4-(4-chlorophenyl)-2,3,9-trimethyl-6H-thieno[3,2-f][1,2,4]triazolo[4,3-a][1,4]diazepin-6-yl)-N-(4-(ethyl(2-(4-(6-hydroxy-2-(4-hydroxyphenyl)benzo[b]thiophene-3-carbonyl)phenoxy)ethyl)amino)butyl) acetamide], for which the GI50 in experiment [1] (setting [7]), in experiment [2] (setting [8]) and in experiment [3] (setting [6]) was 50 to 500 nM throughout.

Take `CCN(CCOCCOCCOCCOCCNC(=O)C[C@@H]1N=C(c2ccc(Cl)cc2)c2c(sc(C)c2C)-n2c(C)nnc21)CCOc1ccc(C(=O)c2c(-c3ccc(O)cc3)sc3cc(O)ccc23)cc1` [I-4, (S)-2-(4-(4-chlorophenyl)-2,3,9-trimethyl-6H-thieno[3,2-f][1,2,4]triazolo[4,3-a][1,4]diazepin-6-yl)-N-(3-ethyl-1-(4-(6-hydroxy-2-(4-hydroxyphenyl)benzo[b]thiophene-3-carbonyl)phenoxy)-6,9,12,15-tetraoxa-3-azaheptadecan-17-yl) acetamide]: the GI50 is less than 50 nM in experiment [1] (setting [7]), 500 to 2500 nM in experiment [2] (setting [8]) and 50 to 500 nM in experiment [3] (setting [6]).

`CCN(CCOCCOCCOCCOCCOCCOCCNC(=O)C[C@@H]1N=C(c2ccc(Cl)cc2)c2c(sc(C)c2C)-n2c(C)nnc21)CCOc1ccc(C(=O)c2c(-c3ccc(O)cc3)sc3cc(O)ccc23)cc1` [I-5, (S)-2-(4-(4-chlorophenyl)-2,3,9-trimethyl-6H-thieno[3,2-f][1,2,4]triazolo[4,3-a][1,4]diazepin-6-yl)-N-(3-ethyl-1-(4-(6-hydroxy-2-(4-hydroxyphenyl)benzo[b]thiophene-3-carbonyl)phenoxy)-6,9,12,15,18,21-hexaoxa-3-azatricosan-23-yl) acetamide]: the GI50 is less than 50 nM in experiment [1] (setting [7]), 500 to 2500 nM in experiment [2] (setting [8]) and 50 to 500 nM in experiment [3] (setting [6]).

In the case of `Cc1sc2c(c1C)C(c1ccc(N3CCN(c4ccc([C@@H]5c6ccc7n[nH]cc7c6C[C@@H](C)N5CC(F)(F)F)nc4)CC3)cc1)=N[C@@H](C)c1nnc(C)n1-2` [I-7, (S)-2,3,6,9-tetramethyl-4-(4-(4-(6-((6S,8R)-8-methyl-7-(2,2,2-trifluoroethyl)-6,7,8,9-tetrahydro-2H-pyrazolo[4,3-f]isoquinolin-6-yl)pyridin-3-yl)piperazin-1-yl)phenyl)-6H-thieno[3,2-f][1,2,4]triazolo[4,3-a][1,4]diazepine], the GI50 in experiment [1] (setting [9]), in experiment [2] (setting [10]) and in experiment [3] was 50 to 500 nM in each case.

As to `CCN(Cc1ccc(C2CN(CC3(O)CCN(c4ccc(C5=N[C@@H](C)c6nnc(C)n6-c6sc(C)c(C)c65)cc4)CC3)C2)cc1)c1cc(OC)ccc1C1CCc2cc(O)ccc2C1` (stereo partly drawn) [I-8, 4-((3-(4-((ethyl(2-(6-hydroxy-1,2,3,4-tetrahydronaphthalen-2-yl)-5-methoxyphenyl)amino)methyl)phenyl)azetidin-1-yl)methyl)-1-(4-((S)-2,3,6,9-tetramethyl-6H-thieno[3,2-f][1,2,4]triazolo[4,3-a][1,4]diazepin-4-yl)phenyl)piperidin-4-ol], the GI50 in experiment [1] (setting [9]) is 50 to 500 nM; in experiment [2] (setting [10]), 50 to 500 nM; in experiment [3], less than 50 nM.

Regarding `Cc1sc2c(c1C)C(c1ccc(OCCCCC3CCN(CCOc4ccc(C(=O)c5c(-c6ccc(O)cc6)sc6cc(O)ccc56)cc4)CC3)cc1)=N[C@@H](Cc1ncco1)c1nnc(C)n1-2` [I-9, (S)-(6-hydroxy-2-(4-hydroxyphenyl)benzo[b]thiophen-3-yl)(4-(2-(4-(4-(4-(2,3,9-trimethyl-6-(oxazol-2-ylmethyl)-6H-thieno[3,2-f][1,2,4]triazolo[4,3-a][1,4]diazepin-4-yl)phenoxy)butyl)piperidin-1-yl)ethoxy)phenyl)methanone], the values for the GI50 in experiment [1] (setting [7]), in experiment [2] (setting [8]) and in experiment [3] (setting [6]) were less than 50 nM, 50 to 500 nM and less than 50 nM, respectively.
